Experimental data taken from patent US10105384B2, “Nucleic acids targeting TCTP for use in the treatment of chemo- or hormone-resistant cancers” (INSTITUT NATIONAL DE LA SANTE ET DE LA RECHERCHE MEDICALE …, priority 2010, dated 2018).

Test system: TCTP
Test: ASO sequences screening: TCTP expression by western blot and/or qRT-PCR
Assay type: cell-based, human
Conditions: WB and/or qRT-PCR, PC-3 cells overexpressing TCTP
Method: Western Blot analysis was performed as described previously (Rocchi et al., 2004, Cancer Res. 64:6595-602) with 1:5000 rabbit anti-Hsp27 polyclonal antibody (Assay Designs, Villeurbanne, France), 1:2000 rabbit TCTP polyclonal antibody (Abcam Inc., Cambridge, UK), 1:250 rabbit anti-MSL1v1 polyclonal antibody (Abcam Inc.), 1:500 mouse anti-ubiquitin monoclonal antibody (Santa Cruz Biotechnology Inc., Heidelberg, Germany) or 1:1000 rabbit anti-caspase-3 polyclonal antibody (Cell Signalling Technology Inc., Danvers, USA). Loading levels were normalized using 1:5000 rabbit anti-glyceraldehyde-3-phosphate dehydrogenase polyclonal (Abcam Inc.) or 1:2500 mouse anti-vinculine monoclonal antibodies (Sigma Chemical Co., St Louis, Mo., USA).
The quantitative reverse transcription polymerase chain reaction (qRT-PCR) analysis was done on a LightCycler detection system (Roche Applied Science, Meylan, France). Expression levels of 18S subunit of the ribosome gene were used as an internal control. First strand cDNA was synthesized from 1 μg of total RNA using random hexamers and expanded by reverse transcriptase according to the manufacturer's instructions (ImProm-II Reverse Transcription System, Promega, Charbonniéres-les-Bains, France), subsequently diluted 1:10 with water, and stored at −20° C. until use. TCTP and 18S polymerase chain reaction (PCR) products were detected by quantitative real time PCR (qRT-PCR) using the SYBR Premix Ex Taq (Takara Bio Inc, St Germain en Laye, France) following the manufacturer's instructions. Five microliters of diluted cDNA template were mixed with 10 μl SYBR Premix Ex Taq (including Taq polymerase, reaction buffer, MgCl2, SYBR green I dye, and deoxynucleotide triphosphate mix) and 0.4 μM forward and reverse primers, in a final volume of 20 μl. The following primers were used: TCTP forward 5′-[…]-3′ (SEQ ID NO: 8) and TCTP reverse 5′-[…]-3′; (SEQ ID NO: 9); 18S forward 5′-[…]-3′ (SEQ ID NO: 10) and 18S reverse 5′-[…]-3′ (SEQ ID NO: 11). After an initial Taq activation for 10 seconds at 95° C., Light Cycler PCR was done using 55 cycles with the following cycling conditions: 95° C. for 5 seconds, 58° C. for 7 seconds, and 72° C. for 14 seconds. Each sample was analyzed in duplicate and the experiment was repeated three times. Results were analyzed using RealQuant data analysis software (Roche, Neuilly-sur-seine, France). The results analysis was done with the 2(-Delta Delta C(T)) Method (Livak K J. et al., 2001; Methods. 25:402-8).
In order to find a sequence ASO having an inhibiting effect on TCTP expression, 30 ASO sequences have been designed 26 of which are shown in table 1. Said 30 sequences cover the TCTP mRNA (accession number NM_003295). Using BLAST program, the specificity of said sequences has been studied. Among said 30 sequences, only 15 sequences have been identified as being specific for TCPT mRNA sequence (see table 1). The effect of said ASO sequences on TCTP expression was tested by western blot analysis (WB) and/or by quantitative reverse transcription polymerase chain reaction (qRT-PCR) on PC-3 cells overexpressing TCTP. WB and qRT-PCR were performed as exposed in example 1.

Compound	ability to inhibit TCTP expression
AGAAAATCATATATGGGGTC (listed as DNA, chemistry not fully specified) [ASO24]	strong ability to inhibit TCTP expression
CTTGTAGGCTTCTTTTGTGA (listed as DNA, chemistry not fully specified) [ASO16]	strong ability to inhibit TCTP expression
GTCATAAAAGGTTTTACTCT (listed as DNA, chemistry not fully specified) [ASO28]	strong ability to inhibit TCTP expression
TTCTGGTCTCTGTTCTTCAA (listed as DNA, chemistry not fully specified) [ASO19]	strong ability to inhibit TCTP expression
TTAACATTTCTCCATTTCTA (listed as DNA, chemistry not fully specified) [ASO26]	strong ability to inhibit TCTP expression
GTTTCCCTTTGATTGATTTC (listed as DNA, chemistry not fully specified) [ASO18]	strong ability to inhibit TCTP expression
ACCAGTGATTACTGTGCTTT (listed as DNA, chemistry not fully specified) [ASO13]	strong ability to inhibit TCTP expression
TAATCATGATGGCGACTGAA (listed as DNA, chemistry not fully specified) [ASO4]	strong ability to inhibit TCTP expression
GAAATTAGCAAGGATGTGCT (listed as DNA, chemistry not fully specified) [ASO30]	strong ability to inhibit TCTP expression
ATGTAATCTTTGATGTACTT (listed as DNA, chemistry not fully specified) [ASO17]	strong ability to inhibit TCTP expression

Test system: PC-3 cells
Test: Flow cytometry of propidium iodide-stained nuclei (apoptosis, cell cycle), PC-3 cells
Assay type: cell-based, human
Conditions: PC-3, docetaxel treatment
Method: Flow cytometry of propidium iodide-stained nuclei was performed as described previously (Rocchi et al., 2004, Cancer Res. 64:6595-602). In brief, PC-3 cells were plated at the density of 10^6 cells into 10 cm dishes in DMEM supplemented with 10% FCS. To assess the effect of TCTP inhibition on apoptosis and cell cycle, cells were treated the day after seeding with 5 nM of siRNA TCTP or control and 100 nM of ASO TCTP or scrambled control for 48 h. Cells were then treated with 50 nM of docetaxel. After 24 h, the cells were analyzed for relative DNA content on a dual laser flow cytometer (FACSCalibur, Becton Dickinson Biosciences, Le Pont de Claix, France). Each assay was performed in triplicate.
Flow cytometry was used to quantify the percentage of cells in each cell cycle phase three days after the siRNA treatment. After the treatment of PC-3 cells with 5 nM TCTP siRNA for 1 day, the fraction of cells undergoing apoptosis (sub-G1/G0 fraction) was 25% higher after treatment with 5 nM TCTP siRNA compared with scrambled control siRNA (**, P≤0.01; FIG. 6, upper panel). Using TCTP ASO treatment alone, we found an increase of 75% in sub-G0G1 fraction (***, P≤0.001; FIG. 6, middle and bottom panel), enhanced by the 50 nM docetaxel treatment (90% in sub-G0-G1 fraction, ***, P≤0.001). […] The fraction of PC-3 in S phase was 20 to 40% lower after TCTP siRNA or ASO treatments respectively compared to the scrambled controls (FIG. 6). […] The rate of apoptotic PC-3 cells after TCTP silencing with different ASO concentrations was explored with the Invitrogen countess (FIG. 6 and FIG. 7A). PC-3 cells were treated with 70, 100 or 200 nM of TCTP ASO or control. Cells were harvested 3 days after treatment and […] of trypan blue was added before analysis with Invitrogen Countess. […] Moreover, TCTP has been reported to interact with caspase-3, thereby inhibiting caspase-3 activation (Gnanasekar et al., 2009, Int J Oncol. 34:1241-6). In order to investigate the effect of TCTP silencing on caspase-3 cleavage and activity, PC-3 cells were treated daily with 100 nM TCTP or scrambled ASO for 2 days. Cells were harvested 2 days after and proteins were extracted for western blotting with a caspase-3 antibody that recognizes both full-length and cleaved caspase-3.
PC3 cells were transfected with a TCTP siRNA of SEQ ID NO: 3. Cell proliferation and apoptosis were studied using respectively MTT (3-(4,5-dimethylthiazol-2-yl)-2,5-diphenyl tetrazolium bromure) assay and flow cytometry.
PC3 cells were transfected with a TCTP ASO of SEQ ID NO: 2. Cell proliferation and apoptosis were studied using respectively MTT assay and flow cytometry.

Compound	fraction of cells in S phase	fraction of cells undergoing apoptosis
CC(=O)O[C@@]12CO[C@@H]1C[C@H](O)[C@@]1(C)C(=O)[C@H](O)C3=C(C)[C@@H](OC(=O)[C@H](O)[C@@H](NC(=O)OC(C)(C)C)c4ccccc4)C[C@@](O)([C@@H](OC(=O)c4ccccc4)[C@H]21)C3(C)C [docetaxel, reference compound]	without changing the fraction of cells in S phase	increased the fraction of cells undergoing apoptosis

Test system: PC-3 tumors
Test: PC-3 tumor growth in vivo in athymic nude mice
Conditions: PC3 xenografted nude mice, 10th week of treatment
Method: Approximately 3.10^6 PC-3 cells and 10.10^6 LNCaP cells were inoculated subcutaneously with 0.1 mL of Dulbecco's Modified Eagle's Medium (Invitrogen) supplemented with 10% FCS for PC-3 or with 0.1 mL of Matrigel (BD Biosciences Discovery Labware) for LNCaP in the flank region of 4-week-old male athymic nude mice (Charles River, L'Arbresle, France) via a 23-gauge needle. When PC-3 tumors reached 50 mm^3, usually 3 to 4 weeks after injection, mice were randomly selected for treatment with TCTP ASO alone, scrambled ASO alone, TCTP ASO plus docetaxel or scrambled ASO plus docetaxel. Mice bearing LNCaP tumors between 200 and 300 mm^3 in volume were castrated via scrotal approach and randomly assigned to a treatment arm. Mice were treated beginning 1 week after castration with TCTP ASO or control ASO alone and serum PSA measurements were done weekly. For both experiments, each experimental group consisted in 10 mice and the tumor volume measurements were performed once weekly and calculated by the formula length×width×depth×0.5236 (Gleave et al., 1999, Clin Cancer Res 5:2891-8). After randomization, 10 mg/kg TCTP or scrambled ASO was injected intraperitoneally (i.p) once daily for 60 days for ASO monotherapy groups and 90 days for the ASO plus docetaxel groups. A total of 35 mg/kg docetaxel was administrated i.p. three times per week from days 7 to 14. Tumor volume measurements were performed once weekly and calculated by the formula length×width×depth×0.5236 (20). Data points were expressed as average tumor volume levels +/−standard error (SE). All animal procedures were performed in accordance with protocols approved by French laws and the European directives and with appropriate institutional certification.
We next evaluated the effects of TCTP ASO treatment on the growth of PC-3 tumors in vivo (FIG. 8). Male nude mice bearing PC-3 tumors (50 mm^3) were randomly selected for TCTP ASO versus scrambled ASO and 10 mg/kg ASO were administrated once daily by i.p. injection for […]. From days 7 to 14, 30 mg/kg of docetaxel was administrated i.p. 3 days in the week. Mean tumor volume was similar in all groups before therapy.
TCTP inhibition was evaluated in nude mice xenografted with the PC3 CRPC cell line. The animals were treated in an everyday basis and for a period of two months by peritoneal injection of ASO or control TCTP once their tumor volume was 200-300 mm^3. In order to evaluate the additive anticancer activity of ASO TCTP, mice were treated with docetaxel (33 mg/kg) by peritoneal injection three times per week for one week prior to ASO or control TCTP injections. For all experiments, the average tumor volume was measured once a week.

Compound	tumor volume
5′-CGTGTAGGTACGGCAGATC-3′ (listed as DNA, chemistry not given here) [ASO scrambled, reference compound]	over 1500 mm^3
